Assay results reported in patent US20130225694A1, “COMPOSITIONS AND METHODS OF INHIBITING RETINAL DEGENERATION” (Oklahoma Medical Research Foundation, priority 2012, published 2013).
Like-named read-outs stand apart in the source and are kept apart here.

Assays:
RPE65 isomerohydrolase = target: T1, RPE65 isomerohydrolase (Bos taurus, UniProt Q28175); assay: In vitro RPE65 isomerohydrolase assay with bovine RPE microsomes (Example 3); assay type: biochemical; settings: for RPE65 inhibition compared with PBN: summary of Table 1
T1 construct: Bovine RPE microsomes were used as a source of the RPE65 protein; from tissue; host or cells: bovine RPE microsomes
T1 sequence (Q28175 whole entry): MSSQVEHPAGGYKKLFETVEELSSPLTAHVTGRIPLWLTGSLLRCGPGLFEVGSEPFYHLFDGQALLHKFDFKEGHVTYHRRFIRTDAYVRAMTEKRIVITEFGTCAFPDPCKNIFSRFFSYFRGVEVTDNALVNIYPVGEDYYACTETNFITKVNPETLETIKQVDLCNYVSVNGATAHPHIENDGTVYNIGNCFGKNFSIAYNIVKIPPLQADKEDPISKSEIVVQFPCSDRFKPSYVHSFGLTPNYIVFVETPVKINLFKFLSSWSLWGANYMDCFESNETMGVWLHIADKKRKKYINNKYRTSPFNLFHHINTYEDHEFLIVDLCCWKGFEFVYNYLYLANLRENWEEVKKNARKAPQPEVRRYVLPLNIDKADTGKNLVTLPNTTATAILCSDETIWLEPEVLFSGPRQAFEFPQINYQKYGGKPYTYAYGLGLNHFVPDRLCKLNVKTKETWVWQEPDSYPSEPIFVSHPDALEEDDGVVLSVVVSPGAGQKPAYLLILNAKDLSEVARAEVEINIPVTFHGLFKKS
Text: In this Example, the effect of several PBN analogs on RPE65 isomerohydrolase activity was investigated in an in vitro assay. The chemical structures of the PBN analogs utilized are described herein above. Bovine RPE microsomes were used as a source of the RPE65 protein and all-trans-[^3H] retinol was a substrate for the isomerohydrolase assay. The produced 11-cis-[^3H] retinol was quantified by normal phase HPLC with flow scintillation analyzer. The inhibition of isomerohydrolase activity was dependent on the PBN analog's concentration.
FIG. 9 also illustrates the calculation of IC50 values for the two difluoro-PBN analogs. IC50 values are the concentration of the inhibitor that inhibits 50% of the enzymatic activity. Therefore, the smaller the IC50 value, the better the drug.

rhodopsin [1] = assay: Rhodopsin regeneration after topical eye drops in mice; assay type: in vivo, Balb/c mice; settings: for % of Rhodopsin recovery: 5% in eye drop at 6, 3 and 0 h before dark adaptation, LA + 1 h DA, DA control = 100; for inhibition of rhodopsin regeneration as eye drop: eye drop formulation, summary of Table 7
Experimental: Panel A: Application scheme and harvesting of the eye. 3 h group received 2 applications and 6 h group received 3 applications. Panel B: Rhodopsin content was measured as pmole/eye. In 1 h in the dark, untreated eyes (NT-LA 1 h DA, no treatment-light adapted followed by 1 hour dark adaptation) and vehicle-treated eyes recovered 75-80% rhodopsin [dark-adapted (DA) control is 100%], whereas 3 h PBN recovered only 43% and 6 h PBN only 29%. (***P<0.0001 compared to vehicle, n=8; ##p<0.005 between 3 h and 6 h group, n=8).
An eye drop formulation was used with various absorption enhancers for topical application of PBN to mouse eyes. […] One hour dark adaptation followed by light causes 75-80% recovery of bleachable rhodopsin in the Balb/c mice (FIG. 18B, NT-LA 1 h DA). The eye drop without PBN (vehicle) had no effect on rhodopsin regeneration (FIG. 18B, vehicle).
Eye drop formulations were prepared as described in Example 7 and contained 5% or 10% of a PBN derivative. The eye drop formulations were applied to Balb/c mice by the 6 h group application scheme shown in FIG. 18A, in which the eye drops were applied at 6, 3, and 0 h before dark adaptation. The eye drops were applied to completely light-adapted mouse eyes, and the mice were then moved to the dark for 1 h to allow the regeneration of bleachable rhodopsin. One hour dark adaptation followed by light causes […] recovery of bleachable rhodopsin in untreated mice (00, No Treatment). The eye drop without any nitrones (vehicle) had no effect on rhodopsin regeneration (000, vehicle).

Rat Retina = assay: Light-induced retinal degeneration in rats, systemic (IP) nitrone; ERG and ONL histology; settings: for A-Wave value at 4 cd·sec/m^2 / B-Wave value at 4 cd·sec/m^2 / A-Wave value at 400 cd·sec/m^2 / B-Wave value at 400 cd·sec/m^2 / % Protection (A-Wave at 4 cd·sec/m^2) / % Protection (A-Wave at 400 cd·sec/m^2) / % Protection (B-Wave at 4 cd·sec/m^2) / % Protection (B-Wave at 400 cd·sec/m^2) / ONL Thickness (μm) Inferior retina / ONL Thickness (μm) Superior retina: 50 mg/kg IP 0.5 h before 2,700 lux 6 h; for A-Wave value at 4 cd·sec/m^2 / B-Wave value at 4 cd·sec/m^2: ERG flash 4.0 cd·sec/m^2 (mostly rod function); for A-Wave value at 400 cd·sec/m^2 / B-Wave value at 400 cd·sec/m^2: ERG flash 400.0 cd·sec/m^2 (rod and cone function); for % Protection (A-Wave at 4 cd·sec/m^2) / % Protection (A-Wave at 400 cd·sec/m^2) / % Protection (B-Wave at 4 cd·sec/m^2) / % Protection (B-Wave at 400 cd·sec/m^2) / % Protection (ONL, Inferior retina) / % Protection (ONL, Superior retina): NLD = 100, Saline LD = 0; for ONL Thickness (μm) Inferior retina / ONL Thickness (μm) Superior retina: histology; for protection of retinal function (ERG A- and B-wave) / protective effect on retinal photoreceptors compared with PBN: 50 mg/kg IP; for protection of retinal function (ERG A- and B-wave): FIGS. 11-12; for protective effect on retinal photoreceptors compared with PBN: ONL histology (FIGS. 14-16)
Experimental: Consistent with previous publications (1-2,5), a dose of 50 mg/kg PBN and S-PBN dissolved in saline was chosen for intraperitoneal injection in the rats in the treatment group. An equal volume of saline was injected into control rats.
A light-stress paradigm of 2,700 lux for 6 hours was used to test the effect of PBN at different time points before (0.5 hour, 3 hours, 6 hours, 12 hours, 16 hours, and 24 hours) or after (0.5 hour and 3 hours) light exposure. The effect of S-PBN was tested using the same dose and protocol of PBN at 0.5 hours before light exposure.
Electroretinography—After light exposure, rats were returned to their dim cyclic light (5-10 lux) environment for 7 days before ERG recordings were performed. Flash ERGs were recorded with the Diagnosys Espion E2 ERG System (Diagnosys, LLC, Lowell, Mass.). Rats were maintained in total darkness overnight and prepared for ERG recording under dim red light. They were anesthetized with ketamine (120 mg/kg body weight) and xylazine (6 mg/kg body weight) intramuscularly (IM). One drop of 10% (v/v) phenylephrine was applied to the cornea to dilate the pupil, and one drop of 0.5% (v/v) proparacaine HCl was applied for local anesthesia. Rats were kept on a heating pad at 37° C. during recordings. A gold electrode was placed on the cornea, a reference electrode was positioned in the mouth, and a ground electrode was placed on the foot; rats were then placed inside a Ganzfeld illuminating sphere. Responses were differentially amplified, averaged, and stored. For the assessment of rod photoreceptor function (scotopic ERG), five strobe flash stimuli were presented at flash intensities at −2.3, −1.3, 0.7, and 2.7 log cd·s/m^2. The amplitude of the a-wave was measured from the pre-stimulus baseline to the a-wave trough. The amplitude of the b-wave was measured from the trough of the a-wave to the peak of the b-wave. For the evaluation of cone function (photopic ERG), a strobe flash stimulus (3.3 log cd·s/m^2) was presented to dilated, light-adapted (5 minutes at 1.7 log cd·s/m^2) rats. The amplitude of the cone b-wave was measured from the trough of the a-wave to the peak of the b-wave.
Histology—After ERG recordings, rats were killed by carbon dioxide asphyxiation for light microscopic evaluation of retinal structure. Immediately after death, eyes were excised, placed in fixative (4% (w/v) paraformaldehyde, 2% (v/v) trichloroacetic acid, 20% (v/v) isopropyl alcohol, 2% (v/v) zinc chloride, and 72% (v/v) distilled water), and embedded in paraffin. Sections of 5 μm were cut along the vertical meridian through the optic nerve and stained with hematoxylin and eosin (H&E).
The PBN derivatives were injected intraperitoneally (IP) into albino SD rats at 50 mg/kg body weight at 0.5 hours before the start of light-damage exposure at 2,700 lux for 6 hours. After the exposure, the rats were moved to their dim cyclic room to recover for a week. Retinal damage/protection was assessed by functional analysis by ERG and structural analysis of histological sections. Dark adapted (12 hour) and Light adapted (for 2 hour) retinas were utilized as controls.

rhodopsin [2] = assay: Rhodopsin regeneration after bleach in rats, IP nitrone; assay type: in vivo, rat; settings: Rattus norvegicus; rats, 50 mg/kg IP, 2 h room light then 2.5 h dark adaptation
Experimental: FIG. 10 graphically illustrates the effects of three PBN analogs of rhodopsin regeneration. Rhodopsin content was measured as nmole/retina following the procedure as in Mandal et al. (J Biol. Chem. 2011. 286 (37):32491-501). After injection with PBN derivatives or vehicles (saline), rats were left in room light for 2 hours (light adapted or LA) and then moved to dark. At 2.5 hours dark adaptation (DA), retinas were harvested. DA-Control, Dark adapted (12 h) control retina without any treatment to show normal rhodopsin content.
Measurement of rhodopsin regeneration—To measure the effect of PBN on the rate of rhodopsin regeneration, dark-adapted rats were injected intraperitoneally with PBN (50 mg/kg) or PBS 0.5 hour prior to a 2 hour bleach in room light (˜400 lux). Immediately following the bleach (time=0 minutes), a group of PBN- and vehicle-treated rats were killed, and retinas were removed and snap frozen. The remaining rats were dark-adapted, and retinas were collected under dim red light at 45, 90, and 180 minutes after the bleach.
Rhodopsin measurements were performed as described previously (2,36) with slight modification. Briefly, under dim red light, each retina was homogenized in 450 μl of buffer containing 10 mM Tris-HCl (pH 7.4), 150 mM NaCl, 1 mM EDTA, 2% (w/v) octylglucoside, and 50 mM hydroxylamine. Homogenates were centrifuged at 16,000 g, and soluble lysates were scanned from 270-800 nm in a spectrophotometer (Ultrospec 3000 UV/Vis Spectrophotometer, GE Healthcare, Piscataway, N.J.). Samples were then bleached under room light for 10 minutes and scanned again. The difference spectra at 500 nm between pre- and post-bleached samples were used to determine rhodopsin content using a molar extinction coefficient of […] (37). The values were normalized to the total lysate volume, and data are presented as rhodopsin content/retina.

[3] = apparent IC50, bovine RPE microsomes, all-trans-[3H] retinol substrate (Table 1), read-out: IC50 Values for the Inhibition of RPE65 Isomerohydrolase Reaction
[4] = in vitro RPE65 isomerohydrolase IC50 values repeated in Table 7, read-out: IC50

Structure (SMILES)	IC50 (RPE65 isomerohydrolase; [3]) [µM]	IC50 (RPE65 isomerohydrolase; [4]) [µM]	% of Rhodopsin recovery (rhodopsin [1]) [%]	A-Wave value at 4 cd·sec/m^2 (Rat Retina)	B-Wave value at 4 cd·sec/m^2 (Rat Retina)	A-Wave value at 400 cd·sec/m^2 (Rat Retina)	B-Wave value at 400 cd·sec/m^2 (Rat Retina)	% Protection (A-Wave at 4 cd·sec/m^2) (Rat Retina) [%]	% Protection (A-Wave at 400 cd·sec/m^2) (Rat Retina) [%]	% Protection (B-Wave at 4 cd·sec/m^2) (Rat Retina) [%]	% Protection (B-Wave at 400 cd·sec/m^2) (Rat Retina) [%]	ONL Thickness (μm) Inferior retina (Rat Retina) [μm]	ONL Thickness (μm) Superior retina (Rat Retina) [μm]	protection of retinal function (ERG A- and B-wave) (Rat Retina)	protective effect on retinal photoreceptors compared with PBN (Rat Retina)	% Protection (ONL, Inferior retina) (Rat Retina) [%]	% Protection (ONL, Superior retina) (Rat Retina) [%]	inhibition at 50 mg/kg (rhodopsin [2]) [%]	inhibition of rhodopsin regeneration as eye drop (rhodopsin [1])	RPE65 inhibition compared with PBN (RPE65 isomerohydrolase)
Cc1ccc(/C=[N+](\[O-])C(C)(C)C)cc1 [Compound 4, 4-Methylphenyl t-butyl nitrone]	100	100	32.54	126.4	369.9	191.3	443.9	65.9	63.6	48.1	54.7	36.2 ± 1.0	35.2 ± 1.2	protected retinal function significantly	slightly lower than that observed for PBN	79.7	79.1	54	more effective in inhibiting rhodopsin regeneration than PBN	
CC(C)(C)/[N+]([O-])=C/c1ccc(F)cc1 [Compound 2, 4-Fluorophenyl t-butyl nitrone]	60	60	81.15	163.0	572.4	295.7	762.6	90.4	102.3	79.5	99.8	42.4 ± 1.3	42.0 ± 1.4	protected retinal function significantly	comparable to PBN, and even appears to provide more protection than PBN	100	96.2	88	not effective at inhibiting rhodopsin regeneration	more effective at inhibiting RPE65 activity than the native PBN molecule
CC(C)(C)/[N+]([O-])=C/c1ccc(C(F)(F)F)cc1 [Compound 3, 4-Trifluoromethylphenyl t-butyl nitrone]	60	60	52.80	148.1	478.7	234.7	560.0	80.4	79.7	64.9	71.2	39.8 ± 1.1	36.8 ± 1.4	protected retinal function significantly	comparable to that of PBN	91.6	83.1	82	more effective in inhibiting rhodopsin regeneration than PBN	more effective at inhibiting RPE65 activity than the native PBN molecule
CCOc1ccc(/C=[N+](\[O-])C(C)(C)C)cc1 [Compound 6, 4-Ethoxyphenyl t-butyl nitrone]	> 2000	> 2000	81.99																	

Second part, led by results:

IC50 (RPE65 isomerohydrolase; [3]) [µM]	IC50 (RPE65 isomerohydrolase; [4]) [µM]	Structure (SMILES)	% of Rhodopsin recovery (rhodopsin [1]) [%]	A-Wave value at 4 cd·sec/m^2 (Rat Retina)	B-Wave value at 4 cd·sec/m^2 (Rat Retina)	A-Wave value at 400 cd·sec/m^2 (Rat Retina)	B-Wave value at 400 cd·sec/m^2 (Rat Retina)	% Protection (A-Wave at 4 cd·sec/m^2) (Rat Retina) [%]	% Protection (A-Wave at 400 cd·sec/m^2) (Rat Retina) [%]	% Protection (B-Wave at 4 cd·sec/m^2) (Rat Retina) [%]	% Protection (B-Wave at 400 cd·sec/m^2) (Rat Retina) [%]	ONL Thickness (μm) Inferior retina (Rat Retina) [μm]	ONL Thickness (μm) Superior retina (Rat Retina) [μm]	protection of retinal function (ERG A- and B-wave) (Rat Retina)	protective effect on retinal photoreceptors compared with PBN (Rat Retina)	% Protection (ONL, Inferior retina) (Rat Retina) [%]	% Protection (ONL, Superior retina) (Rat Retina) [%]	inhibition at 50 mg/kg (rhodopsin [2]) [%]	inhibition of rhodopsin regeneration as eye drop (rhodopsin [1])	RPE65 inhibition compared with PBN (RPE65 isomerohydrolase)
280	280	CC(C)(C)/[N+]([O-])=C/c1cccc(F)c1 [Compound 8, 3-Fluorophenyl t-butyl nitrone]																		
500	500	COc1ccc(/C=[N+](\[O-])C(C)(C)C)cc1 [Compound 5, 4-Methoxyphenyl t-butyl nitrone]	79.10																	
50	50	CC(C)(C)/[N+]([O-])=C/c1ccc(F)c(F)c1 [Compound 10, 3,4-Difluorophenyl t-butyl nitrone]	39.31																more effective in inhibiting rhodopsin regeneration than PBN	more effective at inhibiting RPE65 activity than the native PBN molecule
1300	1300	CC(C)(C)/[N+]([O-])=C/c1ccccc1F [Compound 7, 2-Fluorophenyl t-butyl nitrone]																		
500	500	CC(C)(C)/[N+]([O-])=C/c1cc(F)cc(F)c1 [Compound 9, 3,5-Difluorophenyl t-butyl nitrone]																		
